In patent US20220233661A1, “METHOD OF DETERMINING ELIGIBILITY OF CANCER PATIENT FOR PEPTIDE VACCINE THERAPY” (priority 2019, published 2022):

Assays:
[1] = tested on: anti-peptide IgG in plasma; test: Test Example 4: peptide-specific IgG titer pre and post vaccination, bead-based multiplexed Luminex assay; assay type: in vivo, human; conditions: for Pre-vaccination IgG Negative (number of patients) / Pre-vaccination IgG Positive (number of patients): cut off 10 FIU; for Post vaccination IgG: number of (positive) patients among vaccinated: positive IgG response; for Pre-vaccination IgG Negative patients: number of 2,588 patients below 10 FIU; for Pre-vaccination IgG Positive patients: number of 2,588 patients with ≥10 FIU; for Post vaccination IgG: (positive) patients: number of vaccinated patients with positive IgG response; for Correlation between immune responses and OS: Negative (mOS): patients with negative post-vaccination IgG response to the peptide; for Correlation between immune responses and OS: Positive (mOS): patients with positive post-vaccination IgG response to the peptide
Procedure: As described previously, IgG titer specific to the antigen peptides in plasma was measured by bead-based multiplexed Luminex assay (Luminex, Austin, Tex.) before and after vaccination, i.e., at the end of each cycle or at the end of the clinical trial (Non-Patent Literature 4). In brief, 30 mL of peripheral blood was obtained before and after vaccination. Plasma was incubated with 100 μL of peptide-coupled color-coded beads for 2 hours at 25° C. on a plate shaker. After the incubation, the resultant mixture was washed with a vacuum manifold apparatus and incubated with 100 μL of biotinylated goat anti-human IgG (gamma chain-specific; Vector Laboratories, Burlingame, Calif.) for 1 hour at 25° C. on a plate shaker. The plate was then washed, followed by addition of 100 μL of streptavidin-PE (Life Technologies) to each well, and incubation for 30 minutes at 25° C. on a plate shaker. The resultant beads were washed 4 times, followed by addition of 100 μL of Tween-PBS to each well, and detection of fluorescence intensity units (FIU) on the beads using the Luminex system. The cutoff values of anti-peptide IgG were set to 10 FIU in 100-fold diluted samples.
Pre-vaccination peptide-specific IgG titers to 31 peptides were measured using a Luminex system. As a detectable IgG level, 10 FIU was employed as the cut off level, as reported previously (Noguchi M, et al., Cancer Immunol Immunother. 2013 May; 62(5): 919-29; Sasada T, et al., Current Medicinal Chemistry. 21: 2332-2345, 2014; Kibe S, et al., Cancer Immunology Research 2014; 2(12): 1154-62).
Post-vaccination lgG titers were measured at the ends of the first cycle and the second cycle.

cancer patients = test: Test Example 4: correlation between vaccination with individual peptides (or peptide sets) and OS, Cox proportional hazards regression; assay type: in vivo, human; conditions: for HR: Cox proportional hazards regression, OS; for Correlation between immune responses and OS: Negative (mOS) / Correlation between immune responses and OS: Positive (mOS): Table 20, <64% neutrophil and ≥26% lymphocyte; for Correlation between immune responses and OS: Negative (mOS): vaccinated patients with negative IgG response; for Correlation between immune responses and OS: Positive (mOS): vaccinated patients with positive IgG response
Procedure: The Student's t-test and the chi-square test were used to compare quantitative and categorical variables, respectively. OS was calculated as the time in months from the date of clinical trial enrollment to death or to the date of last contact. Time-to-event endpoints were analyzed using the Kaplan-Meier method, and between-group comparison for OS was conducted using the log-rank test. Clinical efficacy of the individual peptides for OS was evaluated by univariate and multivariate analyses with the Cox proportional hazards regression model, and HR and 95% CI were calculated. All reported p-values were two-sided, and p-values less than 0.05 were considered significant. JMP version 12 or SAS version 9.4 software (SAS Institute Inc., Cary, N.C.) was used to perform all analyses.
Correlation levels of the 31 peptides for OS were evaluated by the Cox proportional hazards regression model.
Similarly, in the 2,085 advanced cancer patients (stage IV+recurrence) and the 503 non-advanced cancer patients (I-III stages) correlation levels of the 31 peptides for OS were evaluated by the Cox proportional hazards regression model. […]

[2] = Table 20, patients showing both <64% neutrophil and ≥26% lymphocyte
[3] = patients showing detectable levels
[4] = patients showing positive responses
[5] = 2,085 advanced cancer patients (stage IV+recurrence)
[6] = Table 18, all 2,588 cases, vaccinated vs non-vaccinated
[7] = Table 18, all 2,588 cases, median OS of patients under PPV containing the peptide
[8] = Table 18, all 2,588 cases, median OS of patients under PPV not containing the peptide
[9] = Table 19, 2,085 advanced cancer patients (stage IV+recurrence)
[10] = Table 19, 2,085 advanced cancer patients (stage IV+recurrence), PPV containing the peptide
[11] = Table 19, 2,085 advanced cancer patients (stage IV+recurrence), PPV not containing the peptide
[12] = Table 21, patients showing both <64% neutrophil and ≥26% lymphocyte
[13] = Table 21, patients showing both <64% neutrophil and ≥26% lymphocyte, PPV containing the peptide
[14] = Table 21, patients showing both <64% neutrophil and ≥26% lymphocyte, PPV not containing the peptide

| Sequence | Post vaccination IgG Median (FIU) [1, 2] | Pre-vaccination IgG Median (FIU) [1, 2] | Pre-vaccination IgG Negative (number of patients) [1, 2] | Pre-vaccination IgG Positive (number of patients) [1, 2] | Post vaccination IgG: number of (positive) patients among vaccinated [1, 2] | Pre-vaccination IgG Negative patients [1] | Pre-vaccination IgG Positive patients [1] | Post vaccination IgG: (positive) patients [1] | Pre-vaccination IgG Median (FIU) [1, 3] | Post vaccination IgG Median (FIU) [1, 4] | Correlation between immune responses and OS: Negative (mOS) [1] | Correlation between immune responses and OS: Positive (mOS) [1] | HR (cancer patients; [6]) | Vaccinate cases (mOS) (cancer patients; [7]) | Non-vaccinate cases (mOS) (cancer patients; [8]) | HR (cancer patients; [9]) | Vaccinate cases (mOS) (cancer patients; [10]) | Non-vaccinate cases (mOS) (cancer patients; [11]) | Correlation between immune responses and OS: Negative (mOS) (cancer patients) | Correlation between immune responses and OS: Positive (mOS) (cancer patients) | other results |
| --- | --- | --- | --- | --- | --- | --- | --- | --- | --- | --- | --- | --- | --- | --- | --- | --- | --- | --- | --- | --- | --- |
| DYVREHKDNI (listed as Homo sapiens) [EGFR-800] | 746 FIU | 32 FIU | 431 | 635 | 176(79) | 1,046 | 1,542 | 390(156) | 30 FIU | 715 FIU | 12.4 months | 24.3 months | 0.8 | 390(14.3) M | 1,160(11.1) M | 0.8 | 299(13.1) M | 947(9.6) M | 17.1 months | 27.5 months | median OS of non-vaccinated cases (cancer patients; [5]): 9.6 months; median OS of vaccinated cases (cancer patients; [5]): 13.1 months; HR (cancer patients; [12]): 0.9; Vaccinate cases (mOS) (cancer patients; [13]): 176(21.2) M; Non-vaccinate cases (mOS) (cancer patients; [14]): 449(21.2) M; median OS of vaccinated cases (cancer patients; all 2,588 cases, PPV containing the peptide): 14.3 months; median OS of non-vaccinated cases (cancer patients; all 2,588 cases, PPV not containing the peptide): 11.1 months |
| DLLSHAFFA (listed as Homo sapiens) [MAP-432] | 947 FIU | 52 FIU | 549 | 517 | 133(45) | 1,280 | 1,308 | 375(97) | 51 FIU | 757 FIU | 12.0 months | 23.8 months | 1.0 | 375(11.1) M | 1,087(11.9) M | 1.1 | 296(9.7) M | 892(10.8) M | 15.5 months | 29.4 months | HR (cancer patients; [12]): 1.1; Vaccinate cases (mOS) (cancer patients; [13]): 133(16.1) M; Non-vaccinate cases (mOS) (cancer patients; [14]): 460(18.5) M |
| RLAEYQAYI (listed as Homo sapiens) [SART3-309] | 6,009 FIU | 33 FIU | 253 | 813 | 154(99) | 667 | 1,921 | 328(158) | 35 FIU | 3,070 FIU | 10.5 months | 21.4 months | 0.9 | 328(12.1) M | 722(11.1) M | 0.9 | 259(11.6) M | 603(9.8) M | 10.4 months | 28.9 months | HR (cancer patients; [12]): 0.9; Vaccinate cases (mOS) (cancer patients; [13]): 154(19.0) M; Non-vaccinate cases (mOS) (cancer patients; [14]): 280(15.6) M |
| ILGELREKV (listed as Homo sapiens) [WHSC2-141] | 18,171 FIU | 38 FIU | 261 | 805 | 134(91) | 680 | 1,908 | 325(173) | 39 FIU | 13,078 FIU | 7.7 months | 19.0 months | 1.0 | 325(12.1) M | 725(11.1) M | 1.0 | 271(11.1) M | 591(10.1) M | 12 months | 28.2 months | HR (cancer patients; [12]): 1.0; Vaccinate cases (mOS) (cancer patients; [13]): 134(18.0) M; Non-vaccinate cases (mOS) (cancer patients; [14]): 300(16.6) M |
| RYLTQETNKV (listed as Homo sapiens) [PTHrP-102] | 5,336 FIU | 27 FIU | 710 | 356 | 91(51) | 1,702 | 886 | 204(99) | 27 FIU | 1,423 FIU | 11.4 months | 20.0 months | 0.9 | 204(13.3) M | 1,346(11.9) M | 0.9 | 168(11.8) M | 1078(10.3) M | 13.9 months | 39 months | HR (cancer patients; [12]): 0.9; Vaccinate cases (mOS) (cancer patients; [13]): 91(21.2) M; Non-vaccinate cases (mOS) (cancer patients; [14]): 534(18.0) M |
| DVWSFGILL (listed as Homo sapiens) [Lck-422] | 446 FIU | 33 FIU | 945 | 121 | 33(10) | 2,272 | 316 | 92(20) | 33 FIU | 436 FIU | 11.7 months | 18.5 months | 1.2 | 92(12.0) M | 1,849(11.4) M | 1.1 | 83(11.7) M | 1493(10.2) M | 15.6 months | 18.8 months | positive rate of patients showing ≥10 FIU, pre-vaccination peptide-specific IgG ([1]; 2,588 patients, pre-vaccination): 12%; positive immune responses post-vaccination (positive of vaccinated cases) ([1]; patients who completed at least the first cycle): 20 of 92; HR (cancer patients; [12]): 1.1; Vaccinate cases (mOS) (cancer patients; [13]): 33(15.6) M; Non-vaccinate cases (mOS) (cancer patients; [14]): 775(17.5) M |
